Reference: article PMC12655351, “Synthesis and Anticancer Activity Evaluation of New 5-((5-Nitrofuran-2-yl)allylidene)-2-thioxo-4-thiazolidinones” (Pharmaceuticals, 2025)

What was measured:
LOX IMVI = settings: LOX IMVI, 48 h
Prostate Cancer = Prostate Cancer subpanel
PC-3 = settings: PC-3, 48 h
HL-60(TB) = assay: NCI-60 SRB screen
HT-29 = assay: MTT assay; format: cell-based; settings: Homo sapiens; HT-29, 24 h of treatment
Outline: (§1)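 MTT read-out (570 nm) following 24 h treatment spanning 0.625–40.0 μM.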

MDA-MB-231 = assay: MTT assay; format: cell-based; settings: Homo sapiens; MDA-MB-231, 24 h of treatment
Outline: as §1

SH SY5Y = assay: MTT assay; format: cell-based; settings: Homo sapiens, 24 h of treatment
Outline: as §1

MCF-7 = assay: MTT assay; format: cell-based; settings: Homo sapiens, MCF7; MCF-7, 24 h of treatment
Outline: as §1

HCT-116 = assay: MTT assay; format: cell-based; settings: Homo sapiens; HCT-116, 24 h of treatment
Outline: as §1

K562 = assay: MTT assay; format: cell-based; settings: Homo sapiens; K562, 24 h of treatment
Outline: as §1

RPMI 8866 = assay: MTT assay; format: cell-based; settings: Homo sapiens; RPMI 8866, 24 h of treatment
Outline: as §1

DLD-1 = assay: MTT assay; format: cell-based; settings: Homo sapiens; DLD-1, 24 h of treatment
Outline: as §1

AGS = assay: MTT assay; format: cell-based; settings: Homo sapiens, 24 h of treatment
Outline: as §1

Jurkat = assay: MTT assay; format: cell-based; settings: Homo sapiens, 24 h of treatment
Outline: as §1

HCC-1954 = assay: MTT assay; format: cell-based; settings: Homo sapiens, HCC1954; HCC-1954, 24 h of treatment
Outline: as §1

SK-OV-3 [1] = settings: SK-OV-3, 48 h
HT29 = assay: cells; settings: Homo sapiens, HT-29, 48 h
T-47D = settings: 48 h
M14 = assay: NCI-60 SRB screen; settings: M14, 48 h
OVCAR-4 = assay: cells; settings: Homo sapiens, OVCAR-4, 48 h
MDA-MB-231/ATCC = settings: 48 h
NCI-H322M = assay: NCI-60 SRB screen; settings: 48 h
Colon cancer = assay: NCI-60 SRB screen, subpanel
Ovarian cancer = assay: cells; settings: Homo sapiens
NCI-H460 = assay: NCI-60 SRB screen; settings: NCI-H460, 48 h
HOP-92 = assay: NCI-60 SRB screen; settings: HOP-92, 48 h
CCRF-CEM = settings: 48 h
SK-OV-3 [2] = assay: cells; settings: Homo sapiens, SK-OV-3, 48 h

For `CC(C)C(C(=O)O)N1C(=O)/C(=C/C=C/c2ccc([N+](=O)[O-])o2)SC1=S` (centres unmarked) [5b, 3-Methyl-2-((Z)-5-((E)-3-(5-nitrofuran-2-yl)allylidene)-4-oxo-2-thioxothiazolidin-3-yl)butanoic acid], the TGI (LOX IMVI) was 2.49 µM, the “MG_MID TGI” value (Prostate Cancer) was 4.67 µM and the TGI (PC-3) was 6.52 µM. It also gave a TGI (HL-60(TB); HL-60(TB), 48 h) of 3.87 µM, a GI50 (HL-60(TB); Homo sapiens, HL-60, 48 h, HL-60(TB), 48 h) of 1.2 µM and a CC50 (HL-60(TB); Homo sapiens, HL-60, 48 h, read-out: LC50, HL-60(TB), 48 h) greater than 100 µM. For the same compound, the “growth GP” value (SK-MEL-5; SK-MEL-5, 10 μM, 48 h) was -99.69%, the TGI (SK-MEL-5; SK-MEL-5, 48 h) was 2.21 µM and the IC50 (HT-29) was 7.74 µM. The IC50 (MDA-MB-231) was 9.12 µM, the IC50 (SH SY5Y) was 9.37 µM and the IC50 (MCF-7) was 3.32 µM. For the same compound, the IC50 (HCT-116) was 4.21 µM, the IC50 (K562) was 16.1 µM and the IC50 (RPMI 8866) was 13.5 µM. For the same compound, the IC50 (DLD-1) was 3.86 µM, the IC50 (AGS) was 2.65 µM and the IC50 (Jurkat) was 3.73 µM. The IC50 (HCC-1954) was 6.42 µM, the “growth GP” value (DU-145; DU-145, 10 μM, 48 h) was -98.94% and the TGI (DU-145; DU-145, 48 h) was 2.82 µM. The TGI (SK-OV-3 [1]) was 10.7 µM, the GI50 (HT29; HT29, 48 h) was 1.37 µM and the CC50 (HT29; read-out: LC50, HT29, 48 h) was 6.14 µM. The “growth GP” value (SF-539; SF-539, 10 μM, 48 h) was -98.47%, the TGI (SF-539; SF-539, 48 h) was 2.91 µM and the TGI (T-47D) was 3.24 µM. For the same compound, the GI50 (M14; Homo sapiens) was 1.6 µM, the CC50 (M14; Homo sapiens, read-out: LC50, M14, 48 h) was 6.44 µM and the TGI (M14) was 3.21 µM. For the same compound, the GI50 (OVCAR-4) was 2.43 µM, the CC50 (OVCAR-4; read-out: LC50, OVCAR-4, 48 h) was 26.3 µM and the TGI (MDA-MB-231/ATCC) was 3.03 µM. The TGI (NCI-H322M) was 3.88 µM, the GI50 (NCI-H322M; Homo sapiens) was 1.82 µM and the CC50 (NCI-H322M; Homo sapiens, read-out: LC50, NCI-H322M, 48 h) was 8.29 µM. The “MG_MID TGI” value (Colon cancer; Colon cancer subpanel) was 2.48 µM, the GI50 (Colon cancer; Homo sapiens, read-out: MG_MID GI50) was 1.03 µM and the CC50 (Colon cancer; Homo sapiens, read-out: MG_MID LC50) was 7.06 µM. The GI50 (Ovarian cancer; read-out: MG_MID GI50) was 1.92 µM, the CC50 (Ovarian cancer; read-out: MG_MID LC50) was 17.4 µM and the GI50 (NCI-H460; Homo sapiens) was 1.76 µM. It also gave a CC50 (NCI-H460; Homo sapiens, read-out: LC50) of 34.5 µM, a TGI (NCI-H460) of 4.93 µM and a TGI (HOP-92) of 4.17 µM. The GI50 (HOP-92; Homo sapiens) was 2.13 µM, the CC50 (HOP-92; Homo sapiens, read-out: LC50, HOP-92, 48 h) was 8.15 µM and the TGI (CCRF-CEM) was 1.81 µM. It also gave a GI50 (SK-OV-3 [2]) of 2.79 µM and a CC50 (SK-OV-3 [2]; read-out: LC50, SK-OV-3, 48 h) of 33.9 µM.
